Data from patent publication US7838685B2 (priority 2005, dated 2010).
“And” between values parts separate entries of the source, which are not always exact repeats. Identical values can stand only once.

Key:
[1] = Phase transition temperature by differential scanning calorimeter; format: physicochemical; conditions: for Tc, temperature of the gel to liquid-crystalline phase transition: dispersed in pure water, lipid concentration 1 wt %, DSC 2° C./min, 20 to 80° C.; for Transition temperature: comparison of cationic vesicles, hydrated at 10 mg/mL, extruded through 0.22 μm filter
Procedure: Each of the obtained cationic amino acid type lipids was dispersed in a simple medium of pure water at 60° C. and used as a measurement sample. 60 μL of a sample solution (lipid concentration: 1 wt %) was encapsulated in a silver pan (sealable type), and the phase transition temperature Tc was measured by a differential scanning calorimeter with the temperature elevation rate of 2° C./min. and the measurement temperature of 20 to 80° C.
(§1) Lys-Asp2C16 (5) was hydrated at a lipid concentration of 10 mg/mL and transmitted through a membrane filter having a final pore diameter of 0.22 μm by the extrusion method. Then, the phase transition temperature and the particle size of the assembly were measured. The particle size of the molecular assembly of Lys-Asp2C16 (5) measured by the dynamic light scattering method was 374±178 nm, and the phase transition temperature thereof was 30° C.

[2] = Observation of the molecular assembly with transmission electron microscope; format: physicochemical; conditions: for Form of molecular assembly observed with electron microscope: hydrate dispersion extruded
Procedure: (§2) 10 mg of the cationic amino acid type lipid (2), (3) or (4) was hydrated in 2 mL of pure water and stirred at room temperature for 6 hours. Then, the resultant hydrate was transmitted with pressure through a membrane filter (final pore diameter: 0.22 μm) (extrusion method). […] After the transmission, the resultant substance was subjected to ultracentrifugation (33,000 rpm, 30 min.) and re-dispersed in pure water to obtain a molecular assembly including a respective cationic amino acid type lipid.
The thickness of the ribbon is considered to be about 5 nm, which is approximately the same as the thickness of the bilayer.

[3] = Particle size of the molecular assembly by dynamic light scattering method; format: physicochemical; conditions: hydrate extruded through 0.22 μm membrane filter
Procedure: as §2
A hydrate dispersion solution of the cationic amino acid type lipid (2) was extruded and observed with an electron microscope. The particle size of the vesicles was approximately the same as the particle size thereof measured by a dynamic light scattering method (181±83 nm).
as §1

[4] = Zeta potential of the molecular assembly including a single type of cationic amino acid type lipid; format: physicochemical; conditions: molecular assembly 1 mg/mL, extrusion method, 30 mM phosphoric buffer solution pH7.4
Procedure: The zeta potential of a molecular assembly (1 mg/mL) including a single type of cationic amino acid type lipid (2), (3) or (4) prepared by the extrusion method was measured by a zeta potentiometer (Nano-ZS, Malvern) with 30 mM of a phosphoric buffer solution at pH7.4. The zeta potential of each molecular assembly was +37 mV with the cationic amino acid type lipid (2), +45 mV with the cationic amino acid type lipid (3), and lower at +18 mV with the cationic amino acid type lipid (4). From such zeta potentials, it has been clarified that the surface of a molecular assembly formed of a cationic amino acid type lipid is charged positive under physiological conditions.

[5] = test system: human fibroblasts CCD-32SK; assay: Cytotoxicity test, cell survival rate by WST assay, CCD-32SK; format: cell-based; conditions: 24 h, 10 μg/dish
Procedure: (§3) The cationic amino acid type lipid (2) was evaluated in terms of cytotoxicity by adding different amounts thereof to cells. Specifically, 1×10^4 simian kidney-derived cells COS-7 or human fibroblasts CCD-32SK were planted to dishes and cultured for 24 hours in an incubator. To the cultured cells, a cationic liposome diluted with a medium was added so as to be 0.1, 1, 5, and 10 μg/dish. The cells were cultured for another 24 hours. Then, the cells were washed with a medium, and the cell survival rate was calculated by the WST assay. Based on the results, the cytotoxicity was evaluated (n=2). For comparison, the same test was performed using lipofectamine, which is currently in general use as a gene introduction drag. In the figure, (a) represents the results with COS-7, and (b) represents the results with CCD-32SK. Where 10 μg of lipofectamine was added to COS-7, the cell survival rate 24 hours later was 20%.

[6] = test system: simian kidney-derived cells COS-7; assay: Cytotoxicity test, cell survival rate by WST assay, COS-7; format: cell-based; conditions: COS-7, 10 μg added, 24 hours later
Procedure: as §3

Tc, temperature of the gel to liquid-crystalline phase transition [1] [°C] | Form of molecular assembly observed with electron microscope ([2]; TEM) | Particle size (dynamic light scattering method) [3] | Transition temperature [1] [°C] | ξ potential [4] | SMILES | further results
49.4 | – | – | – | – | CCCCCCCCCCCCCCCCOC(=O)CCC(N)C(=O)OCCCCCCCCCCCCCCCC (centres unmarked) [Compound 1] | –
– | ribbon-like molecular assembly | 374 ± 178 nm | 30.0 | – | CCCCCCCCCCCCCCCCOC(=O)CC(NC(=O)C(N)CCCCN)C(=O)OCCCCCCCCCCCCCCCC (centres unmarked) [Compound 5, Lys-Asp2C16, reference compound] | Length of the ribbon ([2]; TEM): ≥ 1 μm; Thickness of the ribbon ([2]; TEM): about 5 nm; Width of the ribbon ([2]; TEM): about 100 nm; Stability of the form of the molecular assembly ([2]; after transmission through 0.22 μm membrane filter): unstable in the form; Particle size (dynamic light scattering method) ([3]; listed as Lys-Asp2C16 (5)): 374±178 nm; Transition temperature ([1]; listed as Lys-Asp2C16 (5)): 30 °C
44.8 | monolayer vesicle structures | 1647±733 nm | – | +18 mV | CCCCCCCCCCCCCCCCOC(=O)CCC(NC(=O)C(N)CCCNC(=N)N)C(=O)OCCCCCCCCCCCCCCCC (centres unmarked) [Compound 4] | –
41.2 | – | 181±83 nm and 188 ± 82 nm | 41.2 | +37 mV | CCCCCCCCCCCCCCCCOC(=O)CCC(NC(=O)C(N)CCCCN)C(=O)OCCCCCCCCCCCCCCCC (centres unmarked) [Compound 2] | Cell survival rate [5]: about 80%; Cell survival rate [6]: not decreased at all
43.7 | tubular molecular assembly | 241±96 nm | – | +45 mV | CCCCCCCCCCCCCCCCOC(=O)CCC(NC(=O)C(N)Cc1c[nH]cn1)C(=O)OCCCCCCCCCCCCCCCC (centres unmarked) [Compound 3] | Diameter of tubular molecular assembly ([2]; electron microscope): about 20 nm; Wall thickness of the tube ([2]; electron microscope): about 5 nm
